Measured values taken from ChEMBL document CHEMBL3046368, “Synthesis of benzothiazole derivatives and their biological evaluation as anticancer agents” (2012).
Activity calls are given as the source filed them. No cut-off for these calls is given here.

Tests used:
[1] = molecular target: T1, Ubiquitin-like modifier-activating enzyme 1 (Homo sapiens) (UniProt P22314); experiment: Inhibition of ubiquitin displacement on His6-tagged E2 enzyme from His6-tagged UBA1 (unknown origin) at 10 uM after 1.5 hr by SDS-PAGE analysis
T1 sequence (whole entry): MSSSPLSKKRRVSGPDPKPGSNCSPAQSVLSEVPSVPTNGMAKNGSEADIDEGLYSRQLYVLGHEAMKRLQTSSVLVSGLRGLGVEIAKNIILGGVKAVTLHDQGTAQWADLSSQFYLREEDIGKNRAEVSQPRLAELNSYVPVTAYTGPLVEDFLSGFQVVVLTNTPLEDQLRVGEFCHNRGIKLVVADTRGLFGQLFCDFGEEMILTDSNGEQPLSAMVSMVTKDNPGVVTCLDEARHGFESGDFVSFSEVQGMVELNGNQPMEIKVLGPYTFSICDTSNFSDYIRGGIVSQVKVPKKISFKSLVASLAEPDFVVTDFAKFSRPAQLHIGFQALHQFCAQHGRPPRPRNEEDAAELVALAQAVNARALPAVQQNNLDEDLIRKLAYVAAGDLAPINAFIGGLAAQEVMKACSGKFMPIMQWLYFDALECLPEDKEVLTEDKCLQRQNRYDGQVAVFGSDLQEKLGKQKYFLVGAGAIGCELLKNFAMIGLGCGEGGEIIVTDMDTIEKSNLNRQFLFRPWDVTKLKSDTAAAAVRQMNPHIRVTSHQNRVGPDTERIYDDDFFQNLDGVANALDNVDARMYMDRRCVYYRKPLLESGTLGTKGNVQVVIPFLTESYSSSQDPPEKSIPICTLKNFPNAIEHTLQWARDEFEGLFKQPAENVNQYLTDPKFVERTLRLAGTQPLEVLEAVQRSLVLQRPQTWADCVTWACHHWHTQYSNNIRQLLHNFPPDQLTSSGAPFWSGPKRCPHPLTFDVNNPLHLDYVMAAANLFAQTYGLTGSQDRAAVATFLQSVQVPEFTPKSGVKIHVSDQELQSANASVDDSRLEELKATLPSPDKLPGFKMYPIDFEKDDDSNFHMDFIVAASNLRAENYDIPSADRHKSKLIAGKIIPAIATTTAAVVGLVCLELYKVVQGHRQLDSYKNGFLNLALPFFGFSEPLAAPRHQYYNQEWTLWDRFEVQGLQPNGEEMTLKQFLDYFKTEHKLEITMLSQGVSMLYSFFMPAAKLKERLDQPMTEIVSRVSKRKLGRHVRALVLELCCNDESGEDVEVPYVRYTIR

A498 = experiment: Cytotoxicity against Homo sapiens (human) A498 cells after 48 hr by SRB assay; format: functional; conditions: A498, 48 h
SF-268 = experiment: Cytotoxicity against Homo sapiens (human) SF268 cells after 48 hr by SRB assay; format: functional; conditions: SF-268, 48 h
COLO 205 = experiment: Cytotoxicity against Homo sapiens (human) COLO205 cells after 48 hr by SRB assay; format: functional; conditions: COLO 205, 48 h
SF-539 = experiment: Cytotoxicity against Homo sapiens (human) SF539 cells after 48 hr by SRB assay; format: functional; conditions: SF-539, 48 h
SNB-75 = experiment: Cytotoxicity against Homo sapiens (human) SNB75 cells after 48 hr by SRB assay; format: functional; conditions: SNB-75, 48 h
SN12C = experiment: Cytotoxicity against Homo sapiens (human) SN12C cells after 48 hr by SRB assay; format: functional
HOP-62 = experiment: Cytotoxicity against Homo sapiens (human) HOP62 cells after 48 hr by SRB assay; format: functional; conditions: HOP-62, 48 h
MCF7 = experiment: Cytotoxicity against Homo sapiens (human) MCF7 cells after 48 hr by SRB assay; format: functional; conditions: MCF7, 48 h
RPMI-8226 = experiment: Cytotoxicity against Homo sapiens (human) RPMI8226 cells after 48 hr by SRB assay; format: functional; conditions: RPMI-8226, 48 h
OVCAR-3 = experiment: Cytotoxicity against Homo sapiens (human) OVCAR3 cells after 48 hr by SRB assay; format: functional; conditions: OVCAR-3, 48 h
[2] = Cytotoxicity against Homo sapiens (human) colon cancer cells assessed as cell growth at 10^-5 M after 48 hr by SRB assay relative to control; format: functional; conditions: Cancer cell lines, read-out: Activity
[3] = Cytotoxicity against Homo sapiens (human) renal cancer cells assessed as cell growth at 10^-5 M after 48 hr by SRB assay relative to control; format: functional; conditions: Cancer cell lines, read-out: Activity
[4] = Cytotoxicity against Homo sapiens (human) NSCLC cells assessed as cell growth at 10^-5 M after 48 hr by SRB assay relative to control; format: functional; conditions: read-out: Activity
[5] = Cytotoxicity against Homo sapiens (human) CNSC cells assessed as cell growth at 10^-5 M after 48 hr by SRB assay relative to control; format: functional; conditions: read-out: Activity
[6] = Cytotoxicity against Homo sapiens (human) leukemia cells assessed as cell growth at 10^-5 M after 48 hr by SRB assay relative to control; format: functional; conditions: read-out: Activity
[7] = Cytotoxicity against Homo sapiens (human) melanoma cells assessed as cell growth at 10^-5 M after 48 hr by SRB assay relative to control; format: functional; conditions: read-out: Activity
[8] = Cytotoxicity against Homo sapiens (human) breast cancer cells assessed as cell growth at 10^-5 M after 48 hr by SRB assay relative to control; format: functional; conditions: Cancer cell lines, read-out: Activity
[9] = Cytotoxicity against Homo sapiens (human) prostate cancer cells assessed as cell growth at 10^-5 M after 48 hr by SRB assay relative to control; format: functional; conditions: Cancer cell lines, read-out: Activity
[10] = Cytotoxicity against Homo sapiens (human) ovarian cancer cells assessed as cell growth at 10^-5 M after 48 hr by SRB assay relative to control; format: functional; conditions: Cancer cell lines, read-out: Activity

## COc1ccc2nc(NC(=O)Nc3ccc(C#N)cc3)sc2c1
[1]
  inhibition: inactive

## CC(=O)Nc1ccc(C(=O)Nc2nc3ccc(OC(F)(F)F)cc3s2)cc1
[1]
  inhibition: inactive

## COc1ccc2nc(NC(=O)c3ccc(C#N)cc3)sc2c1
[1]
  inhibition: inactive

## COc1ccc2nc(NC(=O)c3ccc(F)cc3)sc2c1
[1]
  inhibition: inactive

## COc1ccc(C(=O)Nc2nc3ccc(OC)cc3s2)cc1
[1]
  inhibition: inactive

## COc1ccc(NC(=O)Nc2nc3ccc(OC)cc3s2)cc1
[1]
  inhibition: inactive

## O=C(Nc1nc2ccc(OC(F)(F)F)cc2s1)c1ccc(F)cc1
[1]
  inhibition: inactive

## O=c1[nH]cc(F)c(=O)[nH]1 [FLUOROURACIL]
A498
  GI50: 398 nM
SF-268
  GI50: 1580 nM
COLO 205
  GI50: 158 nM
SF-539
  GI50: 63.1 nM
SNB-75
  GI50: 79400 nM
SN12C
  GI50: 501 nM
HOP-62
  GI50: 398 nM
MCF7
  GI50: 79.4 nM
RPMI-8226
  GI50: 44.7 nM
OVCAR-3
  GI50: 15.8 nM

## COc1ccc(NC(=O)Nc2nc3ccc(OC(F)(F)F)cc3s2)cc1
[2]
  growth at 10 µM: 101%
[3]
  growth at 10 µM: 99.4%
[4]
  growth at 10 µM: 95.8%
[5]
  growth at 10 µM: 103%
[6]
  growth at 10 µM: 87%
[7]
  growth at 10 µM: 104%
[1]
  inhibition: inactive
[8]
  growth at 10 µM: 97.8%
[9]
  growth at 10 µM: 95.3%
[10]
  growth at 10 µM: 97.5%

## COc1ccc(C(=O)Nc2nc3ccc(OC(F)(F)F)cc3s2)cc1
[1]
  inhibition: inactive

## COc1ccc2nc(NC(=O)Nc3c(F)cccc3F)sc2c1
[2]
  growth at 10 µM: 107%
[3]
  growth at 10 µM: 97.9%
[4]
  growth at 10 µM: 99.2%
[5]
  growth at 10 µM: 104%
[6]
  growth at 10 µM: 91.2%
[7]
  growth at 10 µM: 102%
[1]
  inhibition: inactive
[8]
  growth at 10 µM: 107%
[9]
  growth at 10 µM: 100%
[10]
  growth at 10 µM: 108%

## O=C(Nc1nc2ccc(OC(F)(F)F)cc2s1)Nc1c(F)cccc1F
[2]
  growth at 10 µM: 91.8%
[3]
  growth at 10 µM: 89.4%
[4]
  growth at 10 µM: 77.6%
[5]
  growth at 10 µM: 96%
[6]
  growth at 10 µM: 64.4%
[7]
  growth at 10 µM: 89.6%
[1]
  inhibition: inactive
[8]
  growth at 10 µM: 89.5%
[9]
  growth at 10 µM: 83.8%
[10]
  growth at 10 µM: 90.2%

## COc1ccc2nc(NC(=O)c3c(F)cccc3F)sc2c1
[1]
  inhibition: inactive

## N#Cc1ccc(C(=O)Nc2nc3ccc(OC(F)(F)F)cc3s2)cc1
[1]
  inhibition: inactive

## O=C(Nc1nc2ccc(OC(F)(F)F)cc2s1)c1c(F)cccc1F
[1]
  inhibition: inactive

## COc1ccc2nc(NC(=O)Nc3ccc(F)cc3)sc2c1
[1]
  inhibition: inactive

## COc1ccc2nc(NC(=O)c3ccc(NC(C)=O)cc3)sc2c1
[1]
  inhibition: inactive
